Test [1] has as its target T1, recombinant N-terminal PMS2 (residues 1-365) (Homo sapiens, UniProt P54278).
T1 construct: recombinant N-terminal PMS2 (residues 1-365)
T1 sequence (P54278 1-365): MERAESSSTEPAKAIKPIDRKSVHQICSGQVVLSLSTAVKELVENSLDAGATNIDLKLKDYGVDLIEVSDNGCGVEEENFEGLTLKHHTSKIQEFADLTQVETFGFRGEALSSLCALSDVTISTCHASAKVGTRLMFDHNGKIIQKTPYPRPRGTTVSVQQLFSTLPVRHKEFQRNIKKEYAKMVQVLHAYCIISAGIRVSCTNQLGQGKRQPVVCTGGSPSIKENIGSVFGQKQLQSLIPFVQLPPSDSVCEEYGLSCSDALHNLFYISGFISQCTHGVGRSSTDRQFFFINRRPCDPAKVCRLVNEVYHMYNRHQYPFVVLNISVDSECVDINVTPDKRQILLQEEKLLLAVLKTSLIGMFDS
Kind of test: Fluorescence Polarisation Assay for PMS2. The note with it: fluorescence polarisation probe displacement; 10 nM N-terminal PMS2, 5 nM probe compound; read-out: PMS2 IC50. Type of test: binding. In a few lines: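 Competition fluorescence polarisation with 10 nM N-terminal PMS2 and 5 nM fluorescent probe (final), read after 1 h at room temperature following 30 min compound pre-incubation. Data normalised to no-inhibitor and no-enzyme controls; single-point screening or serial dilutions for potency.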

The target in test [2] is T2, recombinant N-terminal MLH1 (residues 15-340) (Homo sapiens, UniProt P40692).
T2 construct: recombinant N-terminal MLH1 (residues 15-340)
T2 sequence (P40692 15-340): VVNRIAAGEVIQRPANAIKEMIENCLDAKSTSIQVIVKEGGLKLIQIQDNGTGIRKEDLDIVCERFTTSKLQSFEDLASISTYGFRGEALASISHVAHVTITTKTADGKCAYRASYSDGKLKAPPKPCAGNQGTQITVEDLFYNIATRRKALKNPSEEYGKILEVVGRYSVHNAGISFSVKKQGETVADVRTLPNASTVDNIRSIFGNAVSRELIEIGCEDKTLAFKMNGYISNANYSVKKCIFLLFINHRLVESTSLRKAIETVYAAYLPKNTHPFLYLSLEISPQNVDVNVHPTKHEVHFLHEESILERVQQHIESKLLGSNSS
Kind of test: Fluorescence Polarisation Assay for MLH1. In kind it is binding. The note with it: fluorescence polarisation probe displacement; 100 nM N-terminal MLH1, 5 nM probe compound. In a few lines: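 FP displacement assay: 100 nM MLH1 (residues 15-340) preincubated 30 min at room temperature with compound in 25 mM HEPES pH 7.5, 250 mM NaCl, 10 mM MgCl2, 0.01% Triton X-100, 5 mM DTT, then 5 nM rhodamine-labelled probe added and read immediately. Data normalised to no-inhibitor and no-enzyme controls.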
For orientation: In fluorescence polarisation assays a small probe gives low polarisation when free and higher when bound to something large.

This note sets out measurements from patent US20240293392A1, “INHIBITOR COMPOUNDS” (NeoPhore Limited, priority 2021, published 2024).

As to `COc1cc2c(c(NC3CCOC3)c1)CN(C(=O)c1c(O)cc(O)cc1OCc1ccccc1)CC2` (single isomer, unassigned) [Example 72, (2-(Benzyloxy)-4,6-dihydroxyphenyl)(6-methoxy-8-((tetrahydrofuran-3-yl)amino)-3,4-dihydroisoquinolin-2(1H)-yl)methanone], the IC50 – broadly, the point on the concentration scale where inhibition reaches its midpoint – is 1 to 10 µM in test [1] and below 1 µM in test [2].

`O=C(c1c(O)cc(O)cc1OCc1ccccc1)N1Cc2cccc(NC3CCCOC3)c2C1` (single isomer, unassigned) [Example 31, (2-(Benzyloxy)-4,6-dihydroxyphenyl)(4-((tetrahydro-2H-pyran-3-yl)amino)isoindolin-2-yl)methanone]: the results for the IC50 in test [1] and in test [2] were above 10 µM and 1 to 10 µM, respectively.

Consider `CN(C)Cc1ccc2c(c1)CN(C(=O)c1c(O)cc(O)cc1OCc1ccccc1)C2` [Example 11, (2-(Benzyloxy)-4,6-dihydroxyphenyl)(5-((dimethylamino)methyl)isoindolin-2-yl)methanone], for which the half-maximal inhibitory concentration (IC50) in test [1] and in test [2] was 1 to 10 µM throughout.

On to `O=C(c1c(O)cc(O)cc1OCc1ccccc1)N1Cc2cccc(NCC3CCCO3)c2C1` (stereo not drawn) [Example 33, (2-(Benzyloxy)-4,6-dihydroxyphenyl)(4-(((tetrahydrofuran-2-yl)methyl)amino)isoindolin-2-yl)methanone], for which the values for the IC50 in test [1] and in test [2] were 1 to 10 µM and below 1 µM, respectively.

On to `CC(=O)N1CC[C@H](Nc2cccc3c2CN(C(=O)c2c(O)cc(O)cc2OCc2ccccc2)CC3)C1` [Example 65, (S)-1-(3-((2-(2-(Benzyloxy)-4,6-dihydroxybenzoyl)-1,2,3,4-tetrahydroisoquinolin-8-yl)amino)pyrrolidin-1-yl)ethan-1-one], for which the results for the IC50 in test [1] and in test [2] were above 10 µM and below 1 µM, respectively.

In the case of `CN1CCN(Cc2cc3c(c(N[C@H]4CCOC4)c2)CN(C(=O)c2c(O)cc(O)cc2OCc2ccccc2)CC3)CC1` [Example 121, (S)-(2-(Benzyloxy)-4,6-dihydroxyphenyl)(6-((4-methylpiperazin-1-yl)methyl)-8-((tetrahydrofuran-3-yl)amino)-3,4-dihydroisoquinolin-2(1H)-yl)methanone], the IC50 in test [1] and in test [2] was below 1 µM each time.

As to `O=C(c1c(O)cc(O)cc1OCc1ccccc1)N1CCc2cccc(Nc3ccc(=O)[nH]c3)c2C1` [Example 134, 5-((2-(2-(Benzyloxy)-4,6-dihydroxybenzoyl)-1,2,3,4-tetrahydroisoquinolin-8-yl)amino)pyridin-2(1H)-one], the IC50 is above 10 µM in test [1] and below 1 µM in test [2].

For `O=C(c1c(O)cc(O)cc1OCC1CCCCC1)N1CCc2cccc(NC3CCOC3)c2C1` (stereo not drawn) [Example 28, (2-(Cyclohexylmethoxy)-4,6-dihydroxyphenyl)(8-((tetrahydrofuran-3-yl)amino)-3,4-dihydroisoquinolin-2(1H)-yl)methanone], the IC50 in test [1] and in test [2] was 1 to 10 µM in each case.

Regarding `CN1CC(Nc2cccc3c2CN(C(=O)c2c(O)cc(O)cc2OCc2ccccc2)CC3)CC1=O` (single isomer, unassigned) [Example 62, 4-((2-(2-(Benzyloxy)-4,6-dihydroxybenzoyl)-1,2,3,4-tetrahydroisoquinolin-8-yl)amino)-1-methylpyrrolidin-2-one], the IC50 in test [1] and in test [2] was below 1 µM each time.

Turning to `O=C(c1c(O)cc(O)cc1OCc1ccccc1)N1CCc2ccc(CNC3CCOC3)cc2C1` (stereo not drawn) [Example 85, (2-(Benzyloxy)-4,6-dihydroxyphenyl)(7-(((tetrahydrofuran-3-yl)amino)methyl)-3,4-dihydroisoquinolin-2(1H)-yl)methanone], the IC50 in test [1] and in test [2] was 1 to 10 µM throughout.

Consider `COc1cc(O)cc(O)c1C(=O)N1Cc2cccc(NC3CCOC3)c2C1` (stereo not drawn) [Example 16, (2,4-Dihydroxy-6-methoxyphenyl)(4-((tetrahydrofuran-3-yl)amino)isoindolin-2-yl)methanone], for which the IC50 in test [1] was above 10 µM; in test [2], 1 to 10 µM.

For the molecule `O=C(c1c(O)cc(O)cc1OCc1ccncc1)N1Cc2cccc(NC3CCOC3)c2C1` (stereo not drawn) [Example 97, (2,4-Dihydroxy-6-(pyridin-4-ylmethoxy)phenyl)(4-((tetrahydrofuran-3-yl)amino)isoindolin-2-yl)methanone], the IC50 is 1 to 10 µM in test [1] and below 1 µM in test [2].

In the case of `O=C(c1c(O)cc(O)cc1OCc1ccccc1)N1CCc2cccc(NC3CCCC3)c2C1` [Example 76, (2-(Benzyloxy)-4,6-dihydroxyphenyl)(8-(cyclopentylamino)-3,4-dihydroisoquinolin-2(1H)-yl)methanone], the results for the IC50 in test [1] and in test [2] were above 10 µM and 1 to 10 µM, respectively.

In the case of `CN1CCN(Cc2cccc3c2CN(C(=O)c2c(O)cc(O)cc2OCc2ccccc2)C3)CC1` [Example 9, (2-(Benzyloxy)-4,6-dihydroxyphenyl)(4-((4-methylpiperazin-1-yl)methyl)isoindolin-2-yl)methanone], the IC50 in test [1] and in test [2] was 1 to 10 µM each time.

Turning to `CN1CCN(C(=O)c2cc3c(c(N[C@H]4CCOC4)c2)CN(C(=O)c2c(O)cc(O)cc2OCc2ccccc2)CC3)CC1` [Example 127, (S)-(2-(2-(Benzyloxy)-4,6-dihydroxybenzoyl)-8-((tetrahydrofuran-3-yl)amino)-1,2,3,4-tetrahydroisoquinolin-6-yl)(4-methylpiperazin-1-yl)methanone], the IC50 in test [1] and in test [2] was below 1 µM each time.

On to `COc1ccc2c(c1)CN(C(=O)c1c(O)cc(O)cc1OCc1ccccc1)CC2` [Example 49, (2-Benzyloxy-4,6-dihydroxy-phenyl)-(7-methoxy-3,4-dihydro-1H-isoquinolin-2-yl)methanone], for which the IC50 in test [1] and in test [2] was 1 to 10 µM each time.

Take `O=C(c1c(O)cc(O)cc1OCc1ccccc1)N1Cc2cccc(NCC3CCOC3)c2C1` (stereo not drawn) [Example 112, (2-(Benzyloxy)-4,6-dihydroxyphenyl)(4-(((tetrahydrofuran-3-yl)methyl)amino)isoindolin-2-yl)methanone]: the IC50 is 1 to 10 µM in test [1] and below 1 µM in test [2].

With `CN1C[C@@H](Nc2cccc3c2CN(C(=O)c2c(O)cc(O)cc2OCc2ccccc2)C3)CC1=O` [Example 137, (S)-4-((2-(2-(Benzyloxy)-4,6-dihydroxybenzoyl)isoindolin-4-yl)amino)-1-methylpyrrolidin-2-one], the IC50 in test [1] and in test [2] was below 1 µM each time.

For the molecule `O=C(c1c(O)cc(O)cc1OCc1ccccc1)N1Cc2cccc(NC3CCOCC3)c2C1` [Example 15, (2-(Benzyloxy)-4,6-dihydroxyphenyl)(4-((tetrahydro-2H-pyran-4-yl)amino)isoindolin-2-yl)methanone], the IC50 in test [1] was 1 to 10 µM; in test [2], below 1 µM.

As to `CN1CCC(Nc2cccc3c2CN(C(=O)c2c(O)cc(O)cc2OCc2ccccc2)CC3)C1` (stereo not drawn) [Example 78, (2-(Benzyloxy)-4,6-dihydroxyphenyl)(8-((1-methylpyrrolidin-3-yl)amino)-3,4-dihydroisoquinolin-2(1H)-yl)methanone], the results for the IC50 in test [1] and in test [2] were above 10 µM and below 1 µM, respectively.

For the molecule `CC(=O)N1CCC[C@@H](Nc2cccc3c2CN(C(=O)c2c(O)cc(O)cc2OCc2ccccc2)CC3)C1` [Example 68, (R)-1-(3-((2-(2-(benzyloxy)-4,6-dihydroxybenzoyl)-1,2,3,4-tetrahydroisoquinolin-8-yl)amino)piperidin-1-yl)ethan-1-one], the results for the concentration for half-maximal inhibition (IC50) in test [1] and in test [2] were above 10 µM and below 1 µM, respectively.

Consider `CNCc1cccc2c1CN(C(=O)c1c(O)cc(O)cc1OCc1ccccc1)C2` [Example 79, (2-(Benzyloxy)-4,6-dihydroxyphenyl) (4-((methylamino)methyl)isoindolin-2-yl) methanone], for which the IC50 in test [1] and in test [2] was 1 to 10 µM throughout.

`CN(C)C(=O)c1cc2c(c(N[C@H]3CCOC3)c1)CN(C(=O)c1c(O)cc(O)cc1OCc1ccccc1)CC2` [Example 130, (S)-2-(2-(Benzyloxy)-4,6-dihydroxybenzoyl)-N,N-dimethyl-8-((tetrahydrofuran-3-yl)amino)-1,2,3,4-tetrahydroisoquinoline-6-carboxamide]: the IC50 in test [1] and in test [2] was below 1 µM throughout.

For the molecule `O=C(c1c(O)cc(O)cc1OCc1ccccc1)N1Cc2cccc(N[C@@H]3CCOC3)c2C1` [Example 23, (R)-(2-(Benzyloxy)-4,6-dihydroxyphenyl)(4-((tetrahydrofuran-3-yl)amino)isoindolin-2-yl)methanone], the IC50 was 1 to 10 µM in test [1] and below 1 µM in test [2].
